# Measurements reported in ChEMBL document CHEMBL1130366, “Search for surrogates: A study of endothelin receptor antagonist structure activity relationships” (Bioorg Med Chem Lett, 1997).
# Molecular target: T1, Endothelin-1 receptor (Homo sapiens, UniProt P25101)
# T1 sequence (P25101 whole entry): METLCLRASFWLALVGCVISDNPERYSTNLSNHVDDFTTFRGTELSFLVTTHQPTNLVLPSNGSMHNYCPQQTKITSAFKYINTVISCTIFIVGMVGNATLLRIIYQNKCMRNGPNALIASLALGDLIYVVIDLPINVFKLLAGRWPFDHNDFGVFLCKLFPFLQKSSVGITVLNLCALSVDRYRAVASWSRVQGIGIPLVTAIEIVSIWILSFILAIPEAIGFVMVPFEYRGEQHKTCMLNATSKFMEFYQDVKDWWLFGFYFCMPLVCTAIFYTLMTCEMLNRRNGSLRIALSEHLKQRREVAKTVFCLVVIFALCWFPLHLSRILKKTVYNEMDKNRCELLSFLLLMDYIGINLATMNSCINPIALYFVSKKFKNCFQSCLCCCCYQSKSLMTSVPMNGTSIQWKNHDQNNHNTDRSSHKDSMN
# Assay: Inhibition of I-ET-1 binding to human Endothelin A receptor
row,IC50,SMILES
1,0.104 µM,CCCc1cc2c(cc1OCc1sccc1S(=O)(=O)Nc1onc(C)c1Br)OCO2
2,0.513 µM,Cc1noc(NS(=O)(=O)c2sccc2COc2ccc3c(c2)OCO3)c1Br
3,0.134 µM,CCCc1cc2c(cc1OCc1ccsc1S(=O)(=O)Nc1onc(C)c1Br)OCO2
4,0.129 µM,Cc1noc(NS(=O)(=O)c2ccsc2COc2cc3c(cc2Cl)OCO3)c1Br
5,0.299 µM,Cc1noc(NS(=O)(=O)c2ccsc2COc2ccc3c(c2)OCO3)c1Br
6,0.062 µM,Cc1cc(C)c(OCc2sccc2S(=O)(=O)Nc2onc(C)c2Br)c(C)c1
7,0.054 µM,Cc1cc(C)c(OCc2ccsc2S(=O)(=O)Nc2onc(C)c2Br)c(C)c1

# Molecular target: T2, Endothelin receptor type B (Homo sapiens, UniProt P24530)
# T2 sequence (P24530 whole entry): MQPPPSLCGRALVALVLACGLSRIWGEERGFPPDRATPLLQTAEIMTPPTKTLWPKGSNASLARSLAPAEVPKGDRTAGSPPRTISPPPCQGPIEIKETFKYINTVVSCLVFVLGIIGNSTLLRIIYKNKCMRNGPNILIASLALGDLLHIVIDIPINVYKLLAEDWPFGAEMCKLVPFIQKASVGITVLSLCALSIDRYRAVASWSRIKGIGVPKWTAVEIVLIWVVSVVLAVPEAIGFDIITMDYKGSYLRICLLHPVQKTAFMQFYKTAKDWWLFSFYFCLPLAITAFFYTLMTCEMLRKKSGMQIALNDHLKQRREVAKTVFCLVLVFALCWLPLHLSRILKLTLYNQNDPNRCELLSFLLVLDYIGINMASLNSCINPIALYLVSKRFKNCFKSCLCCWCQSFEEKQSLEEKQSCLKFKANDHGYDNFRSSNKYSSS
# Assay: Inhibition of I-ET-1 binding to human Endothelin B receptor
row,IC50,SMILES
1,15.6 µM,Cc1ccc(OCc2sccc2S(=O)(=O)Nc2onc(C)c2Br)cc1
2,0.335 µM,CCCc1cc2c(cc1OCc1sccc1S(=O)(=O)Nc1onc(C)c1Br)OCO2
3,9.55 µM,Cc1noc(NS(=O)(=O)c2sccc2COc2ccc3c(c2)OCO3)c1Br
4,7.27 µM,Cc1ccc(OCc2ccsc2S(=O)(=O)Nc2onc(C)c2Br)c(C)c1
5,1.3 µM,CCCc1cc2c(cc1OCc1ccsc1S(=O)(=O)Nc1onc(C)c1Br)OCO2
6,0.765 µM,Cc1noc(NS(=O)(=O)c2ccsc2COc2cc3c(cc2Cl)OCO3)c1Br
7,5.93 µM,Cc1noc(NS(=O)(=O)c2ccsc2COc2ccc3c(c2)OCO3)c1Br
8,3.07 µM,Cc1cc(C)c(OCc2sccc2S(=O)(=O)Nc2onc(C)c2Br)c(C)c1
9,4.28 µM,Cc1cc(C)c(OCc2ccsc2S(=O)(=O)Nc2onc(C)c2Br)c(C)c1
